From the supplement of paper PMC13380429

Key:
Conditions in all cases: 72 h
Calu-3 [1] = test: drug sensitivity score (DSS) for viability; higher = more toxic; extreme values may be limits of the assay
U2OS [2] = test: as above
HepG2 [3] = test: as above
Vero E6 [4] = test: as above
Calu-3 [5] = test: cell viability relative to DMSO; higher = less toxic
U2OS [6] = test: as above
HepG2 [7] = test: as above
Vero E6 [8] = test: as above
Calu-3 [9] = test: relative viability EC50 (midpoint between 100% and the lowest measured viability); higher = less toxic
U2OS [10] = test: as above
HepG2 [11] = test: as above
Vero E6 [12] = test: as above
Caco-2 [13] = test: drug sensitivity score (DSS) for viability; higher = more toxic; extreme values may be limits of the assay
Caco-2 [14] = test: cell viability relative to DMSO; higher = less toxic
Caco-2 [15] = test: relative viability EC50 (midpoint between 100% and the lowest measured viability); higher = less toxic

Row | SMILES | drug sensitivity score (Calu-3 [1]) | drug sensitivity score (U2OS [2]) | drug sensitivity score (HepG2 [3]) | drug sensitivity score (Vero E6 [4]) | cell viability (Calu-3 [5]; 1 nM) | cell viability (Calu-3 [5]; 10 nM) | cell viability (Calu-3 [5]; 100 nM) | cell viability (Calu-3 [5]; 1000 nM) | cell viability (Calu-3 [5]; 10000 nM) | cell viability (U2OS [6]; 1 nM) | cell viability (U2OS [6]; 10 nM) | cell viability (U2OS [6]; 100 nM) | cell viability (U2OS [6]; 1000 nM) | cell viability (U2OS [6]; 10000 nM) | cell viability (HepG2 [7]; 1 nM) | cell viability (HepG2 [7]; 10 nM) | cell viability (HepG2 [7]; 100 nM) | cell viability (HepG2 [7]; 1000 nM) | cell viability (HepG2 [7]; 10000 nM) | cell viability (Vero E6 [8]; 1 nM) | cell viability (Vero E6 [8]; 10 nM) | cell viability (Vero E6 [8]; 100 nM) | cell viability (Vero E6 [8]; 1000 nM) | cell viability (Vero E6 [8]; 10000 nM) | relative viability EC50 (Calu-3 [9]) | relative viability EC50 (U2OS [10]) | relative viability EC50 (HepG2 [11]) | relative viability EC50 (Vero E6 [12]) | drug sensitivity score (Caco-2 [13]) | cell viability (Caco-2 [14]; 1 nM) | cell viability (Caco-2 [14]; 10 nM) | cell viability (Caco-2 [14]; 100 nM) | cell viability (Caco-2 [14]; 1000 nM) | cell viability (Caco-2 [14]; 10000 nM) | relative viability EC50 (Caco-2 [15])
1 | CO/N=C(\C(=O)N[C@@H]1C(=O)N2C(C(=O)O)=C(CSc3nc(=O)c(O)nn3C)CS[C@H]12)c1csc(N)n1 [ceftriaxone] | 0 | 0 | 0 | 0 | 92.7% | 94.5% | 95.2% | 92% | 105% | 100% | 94.2% | 94.5% | 95.7% | 97.2% | 93% | 96.7% | 96.5% | 97.3% | 97.9% | 96.6% | 102% | 96% | 106% | 95.5% | > 10 µM | > 10 µM | > 10 µM | > 10 µM | – | – | – | – | – | – | –
2 | CC(=O)c1ccc2c(c1)[C@@H]1C=CC[C@@H]1[C@H](c1cc3c(cc1Br)OCO3)N2 [G-1] | – | 2.5 | 3.1 | 5.8 | – | – | – | – | – | 100% | 98.2% | 94.3% | 102% | 49.7% | 95.4% | 88.4% | 111% | 105% | 36.4% | 102% | 93.3% | 95.8% | 84.8% | 37.1% | – | 3.38 µM | 3.53 µM | 1.57 µM | 2.4 | 96.8% | 93.4% | 102% | 98% | 58.2% | –
3 | O=C1C[C@@H]2OCC=C3CN4CC[C@]56c7ccccc7N1[C@H]5[C@H]2[C@H]3C[C@H]46 [strychnine] | – | 0 | 1.7 | 0.9 | – | – | – | – | – | 97.2% | 101% | 96.8% | 103% | 95.8% | 113% | 93.7% | 106% | 83.1% | 96.3% | 102% | 98.8% | 98.3% | 87.1% | 88.7% | – | > 10 µM | > 10 µM | > 10 µM | 3.7 | 97.8% | 91.1% | 83% | 85.6% | 90.2% | > 10 µM
4 | CC(=O)c1cnc2ccc(-c3cc(Cl)c(O)c(Cl)c3)nc2c1N[C@H]1CC[C@H](CN(C)C)CC1 [OTS167] | – | 30.5 | 30.3 | 29.2 | – | – | – | – | – | 97.6% | 86.7% | 10.7% | 5.5% | 0% | 108% | 84.7% | 11.4% | 5.1% | 3.9% | 96.4% | 100% | 6.3% | 11.7% | 2.6% | – | 0.0295 µM | 0.0253 µM | 0.0351 µM | 21.5 | 98.5% | 98.4% | 41.1% | 34.8% | 12% | 0.0765 µM
5 | NC(=O)CCCCC1CCSS1 (centres undefined) [lipoamide] | – | 0 | 0 | 0 | – | – | – | – | – | 102% | 99.8% | 99.1% | 98.2% | 98% | 88.4% | 108% | 104% | 102% | 90.9% | 103% | 99.2% | 102% | 106% | 99.2% | – | > 10 µM | > 10 µM | > 10 µM | 0 | 110% | 90.3% | 92.4% | 97.9% | 102% | > 10 µM
6 | COc1cc(N2CCC(N3CCN(C)CC3)CC2)ccc1Nc1ncc(Cl)c(Nc2ccccc2S(=O)(=O)C(C)C)n1 [NVP-TAE684] | 3.4 | 5.7 | 8.1 | 4.9 | 97.2% | 94.5% | 90.2% | 86.6% | 61.5% | 106% | 97.9% | 102% | 91.2% | 22.9% | 91.7% | 96.1% | 103% | 63.9% | 34.2% | 100% | 97.2% | 93.5% | 89.5% | 42.6% | – | 2.22 µM | 0.926 µM | 1.81 µM | 4.3 | 103% | 104% | 101% | 87.4% | 53.5% | –
7 | CN1C(=O)CC(C)(c2ccccc2)C1=O (centres undefined) [methsuximide] | – | 0 | 0 | 0 | – | – | – | – | – | 97.1% | 101% | 94% | 96.6% | 91.2% | 98.2% | 94.4% | 101% | 100% | 104% | 96.1% | 97.1% | 98.7% | 96.1% | 95.2% | – | > 10 µM | > 10 µM | > 10 µM | 0 | 97.5% | 102% | 99.1% | 105% | 96.7% | > 10 µM
8 | CC(C)OC(=O)CNC(=O)[C@H](CS)NC(=O)CC[C@H](N)C(=O)O [glutathione-monoisopropyl-ester] | – | – | 0 | 0 | – | – | – | – | – | – | – | – | – | – | 102% | 103% | 105% | 101% | 97.3% | 99.3% | 103% | 99.5% | 99.7% | 100% | – | – | > 10 µM | > 10 µM | 0 | 95.7% | 103% | 96.2% | 103% | 96.3% | > 10 µM
9 | CCC(=O)OCC(=O)[C@@]1(OC(=O)CC)[C@@H](C)C[C@H]2[C@@H]3CCC4=CC(=O)C=C[C@]4(C)[C@@]3(F)[C@@H](O)C[C@@]21C [BETAMETHASONE 17,21-DIPROPIONATE] | – | 0 | 0 | 0 | – | – | – | – | – | 91.6% | 96.8% | 93.7% | 97% | 102% | 103% | 88.3% | 101% | 95.5% | 110% | 103% | 95.2% | 91.2% | 92.9% | 99.1% | – | > 10 µM | > 10 µM | > 10 µM | 0 | 99% | 97.8% | 99.9% | 111% | 98.2% | > 10 µM
10 | Fc1ccc(CNc2ncnc3ccc(F)cc23)cc1 [spautin-1] | 2.8 | 0 | 5.9 | 0.1 | 97.3% | 90.2% | 100% | 88.6% | 70.1% | 92.2% | 97.4% | 101% | 95.5% | 96.7% | 99.2% | 102% | 104% | 88.8% | 26.3% | 102% | 96% | 96.6% | 89.5% | 89.1% | – | > 10 µM | 1.98 µM | > 10 µM | 2.4 | 99.7% | 98.9% | 96% | 91% | 69.3% | –
11 | CC(C)(C)CC(=O)Nc1c(F)cc(C(=O)/N=c2\sccn2COP(=O)(O)O)cc1F | – | 0 | 0 | 0 | – | – | – | – | – | 95.8% | 101% | 97% | 98.2% | 95.5% | 101% | 114% | 94.8% | 98.9% | 96.9% | 107% | 104% | 102% | 96.5% | 94.3% | – | > 10 µM | > 10 µM | > 10 µM | 0 | 97.9% | 109% | 99.4% | 104% | 92.3% | > 10 µM
12 | CCCNCC(O)COc1ccccc1C(=O)CCc1ccccc1 (centres undefined) [propafenone] | 0 | 0 | 1 | 2.9 | 105% | 95.3% | 103% | 93.7% | 99.7% | 99.1% | 93.1% | 95.6% | 94.3% | 92.5% | 99.3% | 94% | 96.4% | 99.4% | 75.1% | 106% | 108% | 106% | 92.2% | 64.9% | > 10 µM | > 10 µM | > 10 µM | – | 0 | 94.7% | 89.5% | 98.4% | 92.8% | 88.9% | > 10 µM
13 | CC/C=C(\C(=O)N[C@@H]1C(=O)N2C(C(=O)OCOC(=O)C(C)(C)C)=C(COC(N)=O)CS[C@H]12)c1csc(N)n1 [cefcapene-pivoxil] | – | 0 | 3.3 | 0 | – | – | – | – | – | 97.2% | 106% | 98.5% | 103% | 103% | 107% | 93.8% | 89.7% | 78.8% | 86.4% | 109% | 94.7% | 110% | 111% | 102% | – | > 10 µM | > 10 µM | > 10 µM | 0 | 104% | 101% | 117% | 113% | 94.4% | > 10 µM
14 | Nc1ncnc2c1c(-c1ccc(Oc3ccccc3)cc1)nn2C1CCCC1 | 3 | 1.1 | 1 | 0.3 | 105% | 104% | 99% | 95.8% | 54.5% | 102% | 97.3% | 101% | 97.4% | 78.7% | 89.7% | 101% | 92% | 88.3% | 82% | 94.2% | 100% | 97.1% | 90.8% | 87.1% | – | > 10 µM | > 10 µM | > 10 µM | 2.3 | 109% | 96.7% | 95.7% | 93.6% | 70.1% | –
15 | CCCCc1ccc2[nH]c(NC(=O)OC)nc2c1 [parbendazole] | 5.9 | 8.8 | 9.6 | 12 | 103% | 96.1% | 96.9% | 69.8% | 57.2% | 96.4% | 98% | 93.2% | 59.2% | 32.7% | 82.9% | 98.3% | 98.2% | 51.7% | 31.5% | 96% | 98.2% | 94.5% | 39% | 28.8% | – | 0.676 µM | 0.641 µM | 0.38 µM | 8.3 | 104% | 94.7% | 91.7% | 59.9% | 48.9% | 0.353 µM
